The target in one experiment is PI3 Kinase γ (Homo sapiens, UniProt P48736). The experiment is described as follows: Fluorescence polarization assay for PI3K (PI3 Kinase γ). The experiment is classed as biochemical. The conditions noted are these: diC8-PI(4,5)P2 substrate, 25 μM ATP, one hour at 25° C. (In general: In fluorescence polarisation assays a small probe gives low polarisation when free and higher when bound to something large.)

The next experiment has as its target PI3 Kinase α (Homo sapiens, UniProt P42336). The experiment is described as follows: Fluorescence polarization assay for PI3K (PI3 Kinase α). The conditions noted are these: diC8-PI(4,5)P2 substrate, 25 μM ATP, one hour at 25° C. The format is biochemical.

pIC50: −log10 of the molar value.

By pIC50 is commonly meant −log10 of the IC50, conventionally taken in molar units.

Chain of PI3 Kinase γ (P48736 whole entry): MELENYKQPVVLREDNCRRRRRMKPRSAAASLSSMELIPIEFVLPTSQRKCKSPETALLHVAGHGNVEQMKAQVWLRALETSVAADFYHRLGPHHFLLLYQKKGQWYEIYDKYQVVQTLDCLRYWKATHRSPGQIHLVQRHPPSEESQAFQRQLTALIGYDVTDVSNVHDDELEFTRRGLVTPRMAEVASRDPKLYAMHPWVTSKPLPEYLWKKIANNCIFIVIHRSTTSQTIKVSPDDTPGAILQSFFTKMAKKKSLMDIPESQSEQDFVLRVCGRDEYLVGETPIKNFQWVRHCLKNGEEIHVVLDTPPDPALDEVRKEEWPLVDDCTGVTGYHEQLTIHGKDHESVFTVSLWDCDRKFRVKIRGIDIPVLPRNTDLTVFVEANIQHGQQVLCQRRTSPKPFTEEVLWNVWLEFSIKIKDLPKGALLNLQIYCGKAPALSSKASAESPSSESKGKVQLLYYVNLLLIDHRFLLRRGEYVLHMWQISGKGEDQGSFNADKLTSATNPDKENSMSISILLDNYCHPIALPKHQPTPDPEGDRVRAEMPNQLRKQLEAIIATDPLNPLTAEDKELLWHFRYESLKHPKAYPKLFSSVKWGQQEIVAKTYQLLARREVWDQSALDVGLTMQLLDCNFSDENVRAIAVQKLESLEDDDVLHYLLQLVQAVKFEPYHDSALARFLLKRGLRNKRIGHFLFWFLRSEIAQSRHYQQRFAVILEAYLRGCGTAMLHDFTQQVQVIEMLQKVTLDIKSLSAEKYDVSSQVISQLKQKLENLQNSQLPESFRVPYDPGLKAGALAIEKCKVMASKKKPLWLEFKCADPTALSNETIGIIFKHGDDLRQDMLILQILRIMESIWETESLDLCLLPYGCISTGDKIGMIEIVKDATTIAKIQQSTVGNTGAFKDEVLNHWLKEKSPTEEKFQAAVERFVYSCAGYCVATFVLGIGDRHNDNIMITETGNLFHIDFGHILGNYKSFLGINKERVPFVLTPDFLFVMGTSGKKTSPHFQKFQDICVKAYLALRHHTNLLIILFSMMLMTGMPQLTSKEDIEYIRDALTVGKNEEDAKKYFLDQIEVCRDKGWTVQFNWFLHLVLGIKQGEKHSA
Chain of PI3 Kinase α (P42336 whole entry): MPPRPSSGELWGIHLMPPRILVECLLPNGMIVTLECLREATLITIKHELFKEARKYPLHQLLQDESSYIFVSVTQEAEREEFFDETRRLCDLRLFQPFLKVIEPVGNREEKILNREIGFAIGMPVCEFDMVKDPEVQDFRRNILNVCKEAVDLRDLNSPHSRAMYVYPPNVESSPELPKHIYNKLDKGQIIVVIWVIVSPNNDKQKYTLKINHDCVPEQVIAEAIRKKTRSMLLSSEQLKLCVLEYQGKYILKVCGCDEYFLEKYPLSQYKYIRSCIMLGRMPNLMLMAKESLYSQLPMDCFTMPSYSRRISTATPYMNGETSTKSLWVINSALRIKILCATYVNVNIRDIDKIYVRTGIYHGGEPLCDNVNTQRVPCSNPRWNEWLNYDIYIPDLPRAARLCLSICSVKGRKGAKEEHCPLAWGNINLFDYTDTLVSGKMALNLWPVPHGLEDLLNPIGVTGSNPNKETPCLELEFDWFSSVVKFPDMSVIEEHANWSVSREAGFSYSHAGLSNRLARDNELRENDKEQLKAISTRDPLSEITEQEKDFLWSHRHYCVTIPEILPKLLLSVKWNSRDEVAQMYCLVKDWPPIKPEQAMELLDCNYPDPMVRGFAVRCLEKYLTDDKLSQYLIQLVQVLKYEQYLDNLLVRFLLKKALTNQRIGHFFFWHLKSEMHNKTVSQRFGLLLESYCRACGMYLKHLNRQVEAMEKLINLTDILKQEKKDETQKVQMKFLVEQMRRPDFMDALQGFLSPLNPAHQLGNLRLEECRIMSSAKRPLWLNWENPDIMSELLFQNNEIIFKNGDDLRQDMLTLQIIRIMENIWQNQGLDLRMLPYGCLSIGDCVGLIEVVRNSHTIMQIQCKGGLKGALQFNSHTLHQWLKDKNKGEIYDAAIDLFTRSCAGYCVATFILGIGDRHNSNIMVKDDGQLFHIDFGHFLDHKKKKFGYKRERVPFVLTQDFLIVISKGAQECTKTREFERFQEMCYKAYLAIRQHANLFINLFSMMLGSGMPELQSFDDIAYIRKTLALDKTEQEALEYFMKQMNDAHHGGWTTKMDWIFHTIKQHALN
Chain of PI3 Kinase α (P27986 whole entry partner): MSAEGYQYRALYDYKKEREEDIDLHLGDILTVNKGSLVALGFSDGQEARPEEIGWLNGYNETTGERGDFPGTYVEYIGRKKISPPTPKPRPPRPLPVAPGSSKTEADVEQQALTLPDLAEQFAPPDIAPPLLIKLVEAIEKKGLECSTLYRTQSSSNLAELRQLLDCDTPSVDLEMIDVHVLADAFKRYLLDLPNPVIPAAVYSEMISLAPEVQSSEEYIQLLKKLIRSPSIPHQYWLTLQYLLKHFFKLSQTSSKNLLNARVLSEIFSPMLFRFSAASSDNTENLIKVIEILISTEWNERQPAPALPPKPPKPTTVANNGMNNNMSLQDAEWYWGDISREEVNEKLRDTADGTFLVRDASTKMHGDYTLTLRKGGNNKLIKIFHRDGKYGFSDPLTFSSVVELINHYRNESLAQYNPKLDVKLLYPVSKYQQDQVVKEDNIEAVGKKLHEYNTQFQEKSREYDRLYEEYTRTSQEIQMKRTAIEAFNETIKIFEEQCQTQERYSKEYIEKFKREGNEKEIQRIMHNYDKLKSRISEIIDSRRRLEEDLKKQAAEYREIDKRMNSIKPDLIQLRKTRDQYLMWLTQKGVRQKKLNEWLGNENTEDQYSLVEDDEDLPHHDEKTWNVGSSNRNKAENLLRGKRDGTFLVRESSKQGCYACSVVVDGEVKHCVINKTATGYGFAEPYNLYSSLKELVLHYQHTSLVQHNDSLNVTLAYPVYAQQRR
Experimental for PI3 Kinase α: (§1) Nunc 384 well black polypropylene fluorescent plates were used for PI3K assays. Reactions were quenched by the addition of EDTA to a final concentration of 10 μM. Final reaction volumes were 10 ml. […] Reactions were allowed to proceed for one hour at 25° C. After I hour, GST-tagged GRP1 (general receptor for phosphoinositides) PH domain fusion protein was added to a final concentration of 100 nM, and BODIPY-TMRI(1,3,4,5)P4 (Echelon) was also added to a final concentration of 5 nM. Final sample volumes were 25 μl with a final DMSO concentration of 0.8%. Assay Plates were read on PerkinElmer Envision plate readers with appropriate filters for Tamra [BODIPY-TMRI(1,3,4,5)P4]. Data obtained were used to calculate enzymatic activity and enzyme inhibition by inhibitor compounds.
Experimental for PI3 Kinase γ: as §1

As for `O=C(NCCc1c[nH]c2ccccc12)c1ccc(Cn2nnc3c(N4CCOCC4)nc(-c4cccc(O)c4)nc32)cc1` [Example 225, 4-{[5-(3-hydroxyphenyl)-7-morpholin-4-yl-3H-[1,2,3]triazolo[4,5-d]pyrimidin-3-yl]methyl}-N-[2-(1H-indol-3-yl)ethyl]benzamide], the pIC50 against PI3 Kinase γ was 6.87; against PI3 Kinase α, 7.37.

In the case of `O=C(NCC(O)c1ccccc1)c1ccc(Cn2nnc3c(N4CCOCC4)nc(-c4cccc(O)c4)nc32)cc1` (stereo not shown) [Example 226, N-(2-hydroxy-2-phenylethyl)-4-{[5-(3-hydroxyphenyl)-7-morpholin-4-yl-3H-[1,2,3]triazolo[4,5-d]pyrimidin-3-yl]methyl}benzamide], the results for the pIC50 against PI3 Kinase γ and at PI3 Kinase α were 6.02 and 6.90, respectively.

As for `O=C(c1ccc(Cn2nnc3c(N4CCOCC4)nc(-c4cccc(O)c4)nc32)cc1)N1CCCCC1` [Example 227, 3-{7-morpholin-4-yl-3-[4-(piperidin-1-ylcarbonyl)benzyl]-3H-[1,2,3]triazolo[4,5-d]pyrimidin-5-yl}phenol], the values for the pIC50 on PI3 Kinase γ and on PI3 Kinase α were 6.02 and 5.95, respectively.

As to `O=C(c1ccc(Cn2nnc3c(N4CCOCC4)nc(-c4cccc(O)c4)nc32)cc1)N1CCCC1` [Example 228, 3-{7-morpholin-4-yl-3-[4-(pyrrolidin-1-ylcarbonyl)benzyl]-3H-[1,2,3]triazolo[4,5-d]pyrimidin-5-yl}phenol], the pIC50 on PI3 Kinase γ is 6.26; against PI3 Kinase α it was 6.04.

With `O=C(c1ccc(Cn2nnc3c(N4CCOCC4)nc(-c4cccc(O)c4)nc32)cc1)N1CCN(c2ccccc2)CC1` [Example 229, 3-(7-morpholin-4-yl-3-{4-[(4-phenylpiperazin-1-yl)carbonyl]benzyl}-3H-[1,2,3]triazolo[4,5-d]pyrimidin-5-yl)phenol], the pIC50 against PI3 Kinase γ is 4.99; on PI3 Kinase α it was 6.54.

Turning to `O=C(NCc1ccco1)c1ccc(Cn2nnc3c(N4CCOCC4)nc(-c4cccc(O)c4)nc32)cc1` [Example 230, N-(2-furylmethyl)-4-{[5-(3-hydroxyphenyl)-7-morpholin-4-yl-3H-[1,2,3]triazolo[4,5-d]pyrimidin-3-yl]methyl}benzamide], the pIC50 is 6.03 against PI3 Kinase γ and 6.93 at PI3 Kinase α.

Take `O=C(NCCc1cnc[nH]1)c1ccc(Cn2nnc3c(N4CCOCC4)nc(-c4cccc(O)c4)nc32)cc1` [Example 231, 4-{[5-(3-hydroxyphenyl)-7-morpholin-4-yl-3H-[1,2,3]triazolo[4,5-d]pyrimidin-3-yl]methyl}-N-[2-(1H-imidazol-5-yl)ethyl]benzamide]: the pIC50 on PI3 Kinase γ is 5.64; against PI3 Kinase α, 7.22.

For `CC(C)(C)OC(=O)Cn1nnc2c(N3CCOCC3)nc(-c3cccc(CO)c3)nc21` [Example 232, tert-butyl {5-[3-(hydroxymethyl)phenyl]-7-morpholin-4-yl-3H-[1,2,3]triazolo[4,5-d]pyrimidin-3-yl}acetate], the pIC50 at PI3 Kinase γ was 5.71; against PI3 Kinase α it was 6.43.

In the case of `CC(C)(C)OC(=O)Cn1nnc2c(N3CCOCC3)nc(-c3cccc(O)c3)nc21` [Example 233, tert-butyl [5-(3-hydroxyphenyl)-7-morpholin-4-yl-3H-[1,2,3]triazolo[4,5-d]pyrimidin-3-yl]acetate], the pIC50 on PI3 Kinase γ is 5.57; against PI3 Kinase α, 6.30.

On to `CC(C)(C)OC(=O)Cn1nnc2c(N3CCOCC3)nc(-c3ccc(NC(=O)Nc4ccncc4)cc3)nc21` [Example 234, tert-butyl (7-morpholin-4-yl-5-{4-[(pyridin-4-ylcarbamoyl)amino]phenyl}-3H-[1,2,3]triazolo[4,5-d]pyrimidin-3-yl)acetate], for which the pIC50 against PI3 Kinase γ was 6.76; against PI3 Kinase α, 7.13.

Consider `O=C(Cn1nnc2c(N3CCOCC3)nc(-c3cccc(CO)c3)nc21)Nc1cccnc1` [Example 235, 2-{5-[3-(hydroxymethyl)phenyl]-7-morpholin-4-yl-3H-[1,2,3]triazolo[4,5-d]pyrimidin-3-yl}-N-pyridin-3-ylacetamide], for which the values for the pIC50 against PI3 Kinase γ and on PI3 Kinase α were 5.65 and 6.20, respectively.

These data come from patent US20090181963A1, “3H-[1,2,3]TRIAZOLO[4,5-D]PYRIMIDINE COMPOUNDS, THEIR USE AS mTOR KINASE AND PI3 KINASE INHIBITORS, AND THEIR [sequence]” (Wyeth, priority 2008, published 2009).
